Data reported in article PMC3696112 (PLoS ONE, 2013).

Biological target: T1, Ech (enoyl-CoA hydratase/aldolase) (Streptomyces sp. V-1, UniProt S5LPF1)
T1 construct: ATCC 39116
T1 sequence (S5LPF1 1-287): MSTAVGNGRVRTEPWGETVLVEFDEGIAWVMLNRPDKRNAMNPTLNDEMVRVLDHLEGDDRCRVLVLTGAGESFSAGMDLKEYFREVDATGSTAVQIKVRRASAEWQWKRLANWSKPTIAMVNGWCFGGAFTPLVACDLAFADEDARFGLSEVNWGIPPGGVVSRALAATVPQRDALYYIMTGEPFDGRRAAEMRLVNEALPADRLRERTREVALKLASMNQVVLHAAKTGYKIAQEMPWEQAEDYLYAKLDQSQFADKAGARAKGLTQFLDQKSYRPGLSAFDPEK
Assay: coupled assay with purified Fcs, GC analysis (qualitative)
Type: biochemical
Conditions: feruloyl-CoA made in situ from 0.7 mM ferulic acid by Fcs; 2 mM ATP, 0.4 mM CoA, 2.5 mM MgCl2, 100 mM potassium phosphate pH 7.0

In the case of `COc1cc(C=O)ccc1O` [vanillin, 4-hydroxy-3-methoxybenzaldehyde], the “coupled assay with purified Fcs, GC analysis (qualitative)” value is reported as “production of vanillin, catalyzed by Ech, were observed and analyzed qualitatively from the GC spectrum”.
